IC50 data for 33 compounds are collected here from patent publication US20260184687A1, “DIHYDROINDENE DERIVATIVES AS MALT1 INHIBITORS” (C4X Discovery Limited, priority 2022, published 2026).

For one test, the target named is T1, FL hMALT1 enzyme (Homo sapiens, UniProt Q9UDY8).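 Also: Cell-free protease assay: enzyme preincubated with compound 30 min at room temperature, then cleavage of fluorogenic Ac-LVSR-AMC substrate (100 µM) tracked by fluorescence (ex 360/em 460 nm).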
T1 sequence (Q9UDY8 1-824): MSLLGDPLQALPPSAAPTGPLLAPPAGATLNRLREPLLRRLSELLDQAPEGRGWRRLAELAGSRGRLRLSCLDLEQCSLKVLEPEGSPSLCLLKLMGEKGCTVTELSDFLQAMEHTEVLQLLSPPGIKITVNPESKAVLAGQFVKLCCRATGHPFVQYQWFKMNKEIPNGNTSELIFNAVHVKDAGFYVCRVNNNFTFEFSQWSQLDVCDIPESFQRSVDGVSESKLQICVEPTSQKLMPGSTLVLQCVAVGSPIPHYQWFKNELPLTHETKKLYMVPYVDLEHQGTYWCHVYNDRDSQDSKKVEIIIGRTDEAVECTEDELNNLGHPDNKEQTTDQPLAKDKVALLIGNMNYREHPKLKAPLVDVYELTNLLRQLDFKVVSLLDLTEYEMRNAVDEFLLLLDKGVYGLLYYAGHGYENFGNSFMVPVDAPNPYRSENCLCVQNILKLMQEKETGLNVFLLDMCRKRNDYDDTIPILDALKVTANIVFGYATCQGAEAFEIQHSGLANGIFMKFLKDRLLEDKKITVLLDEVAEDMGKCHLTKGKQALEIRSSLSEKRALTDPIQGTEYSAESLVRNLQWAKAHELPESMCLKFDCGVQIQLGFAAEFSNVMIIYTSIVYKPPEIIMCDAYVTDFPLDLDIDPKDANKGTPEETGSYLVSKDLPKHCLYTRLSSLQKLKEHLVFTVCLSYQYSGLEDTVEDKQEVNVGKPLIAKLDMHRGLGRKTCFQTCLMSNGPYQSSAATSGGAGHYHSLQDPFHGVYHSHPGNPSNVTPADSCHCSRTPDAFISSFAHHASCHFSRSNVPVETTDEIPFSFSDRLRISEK
Briefly: biochemical.

Test [1] has as its system IL-2 release from stimulated Jurkat cells. Kind of test: Human IL-2 Release Phenotypic Assay (Assay 3). Particulars: Jurkat cells (clone E6-1), 200 ng/mL PMA + 300 ng/mL ionomycin, IL-2 by ELISA. It counts as cell-based. Put shortly: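 Jurkat E6-1 cells in RPMI1640/10% FBS were seeded at 50 000 cells/well and incubated overnight at 37° C. Half-log compound dilutions (0.5% final DMSO) were added for 30 min, then cells were stimulated with 200 ng/mL PMA + 300 ng/mL ionomycin for 48 h. IC50 came from a 4-parameter non-linear regression fit.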

pIC50: −log10 of the molar value.

By pIC50 is commonly meant the negative decadic logarithm of the IC50, by convention in mol/L. As for `CN(C(=O)[C@H]1C[C@@]2(CCN2C)C1)[C@@H](c1ccc(NC2Cc3ccccc3C2(C)C)cn1)C(F)(F)F` (single isomer, unassigned) [Example 156], the negative-log IC50 (pIC50) on FL hMALT1 enzyme is 6.77; in test [1] (48 hours), 5.76.

Turning to `CN(C(=O)C1C2CS(=O)(=O)CC21)[C@@H](c1ccc(NC2Cc3ccccc3C2(C)C)cn1)C(F)(F)F` (single isomer, unassigned) [Example 215], the negative-log IC50 (pIC50) at FL hMALT1 enzyme is 7.06; in test [1] (48 hours), 6.20.

`CN(C(=O)C1CN(C(=O)C2CCOC2)C1)[C@@H](c1ccc(NC2Cc3ccc(Cl)c(Cl)c3C2)cn1)C(F)(F)F` (single isomer, unassigned) [Example 353]: the figures for the pIC50 (at FL hMALT1 enzyme; in test [1] (48 hours)) were 7.48 and 7.20, respectively.

`CN(C(=O)C1CCC(=O)NC1)[C@@H](c1ccc(NC2Cc3ccccc3C2(C)C)cn1)C(F)(F)F` (single isomer, unassigned) [Example 106]: the pIC50 against FL hMALT1 enzyme is 6.89; in test [1] (48 hours) it was 6.27.

Consider `CN(C(=O)C1CNC(=O)O1)[C@@H](c1ccc(N[C@@H]2Cc3ccccc3C2(C)C)cn1)C(F)(F)F` (single isomer, unassigned) [Example 111], for which the results for the pIC50 (on FL hMALT1 enzyme; in test [1] (48 hours)) were 7.28 and 6.19, respectively.

For the compound `CN(C(=O)C1CC2(CNC(=O)OC2)C1)[C@@H](c1ccc(NC2Cc3ccccc3C2(C)C)nc1)C(F)(F)F` (single isomer, unassigned) [Example 174], the pIC50 against FL hMALT1 enzyme is 7.15; in test [1] (Homo sapiens, Jurkat, 48 h) it was 6.05.

Turning to `CN(C(=O)C1CNC(=O)O1)[C@@H](c1ccc(N[C@@H]2Cc3ccccc3C2(C)C)cn1)C(F)(F)F` (single isomer, unassigned) [Example 108], the negative-log IC50 (pIC50) against FL hMALT1 enzyme was 6.82; in test [1] (48 hours), 6.05.

As for `CN1CCC(C(=O)N(C)[C@@H](c2ccc(N[C@H]3Cc4ccccc4C3(C)C)cn2)C(F)(F)F)CC1=O` (single isomer, unassigned) [Example 250], the pIC50 against FL hMALT1 enzyme is 7.39; in test [1] (Homo sapiens, Jurkat, 48 h) it was 6.52.

On to `CN(C(=O)C1CCS(=O)(=O)CC1)[C@@H](c1ccc(NC2Cc3cccc(C(F)(F)F)c3C2)cn1)C(F)(F)F` (single isomer, unassigned) [Example 191], for which the negative logarithm of the IC50 (pIC50) against FL hMALT1 enzyme is 7.59; in test [1] (Homo sapiens, Jurkat, 48 h) it was 6.13.

Turning to `CN(C(=O)C1CNC(=O)O1)[C@@H](c1ccc(N[C@@H]2Cc3ccccc3C2(C)C)cn1)C(F)(F)F` (single isomer, unassigned) [Example 109], the pIC50 on FL hMALT1 enzyme is 6.12; in test [1] (48 hours), 6.05.

Regarding `CN(C(=O)C1CCS(=O)(=O)CC1)[C@@H](c1ccc(NC2Cc3c(F)ccc(Cl)c3C2)cn1)C(F)(F)F` (single isomer, unassigned) [Example 293], the pIC50 against FL hMALT1 enzyme is 7.26; in test [1] (Homo sapiens, Jurkat, 48 h), 6.34.

As to `CN(C(=O)[C@H]1C[C@H](N(C)C)C1)[C@@H](c1ccc(NC2Cc3ccccc3C2(C)C)cn1)C(F)(F)F` (single isomer, unassigned) [Example 113], the pIC50 at FL hMALT1 enzyme is 7.17; in test [1] (48 hours) it was 6.31.

Regarding `CN(C(=O)C1CN(C(=O)C2COC2)C1)[C@@H](c1ccc(NC2Cc3ccc(Cl)c(F)c3C2)cn1)C(F)(F)F` (single isomer, unassigned) [Example 371], the pIC50 against FL hMALT1 enzyme was 7.12; in test [1] (Homo sapiens, Jurkat, 48 h), 6.66.

Consider `CCN(C(=O)C1CCS(=O)(=O)CC1)[C@@H](c1ccc(NC2Cc3ccccc3C2(C)C)cn1)C(F)(F)F` (single isomer, unassigned) [Example 189], for which the negative-log IC50 (pIC50) against FL hMALT1 enzyme is 7.04; in test [1] (48 hours) it was 5.52.

As for `CN(C(=O)C1CN(S(C)(=O)=O)C1)[C@@H](c1ccc(NC2Cc3ccccc3C2(C)C)cn1)C(F)(F)F` (single isomer, unassigned) [Example 209], the pIC50 is 7.28 against FL hMALT1 enzyme and 6.42 in test [1] (Homo sapiens, Jurkat, 48 h).

For the compound `CN(C(=O)C1CCS(=O)(=O)CC1)[C@@H](c1ccc(NC2Cc3cccc(C4CC4)c3C2)cn1)C(F)(F)F` (single isomer, unassigned) [Example 254], the pIC50 was 7.28 on FL hMALT1 enzyme and 5.85 in test [1] (Homo sapiens, Jurkat, 48 h).

As for `COCCN1CCC12CC(C(=O)N(C)[C@@H](c1ccc(NC3Cc4ccccc4C3(C)C)cn1)C(F)(F)F)C2` (single isomer, unassigned) [Example 243], the pIC50 against FL hMALT1 enzyme is 7.07; in test [1] (Homo sapiens, Jurkat, 48 h), 6.19.

`Cc1c(Cl)ccc2c1CC(Nc1ccc([C@H](N(C)C(=O)C3CCS(=O)(=O)CC3)C(F)(F)F)nc1)C2` (single isomer, unassigned) [Example 372]: the negative logarithm of the IC50 (pIC50) was 7.72 against FL hMALT1 enzyme and 6.89 in test [1] (Homo sapiens, Jurkat, 48 h).

With `CN(C(=O)C1CCC(=O)NC1)[C@@H](c1ccc(NC2Cc3ccccc3C2(C)C)cn1)C(F)(F)F` (single isomer, unassigned) [Example 107], the pIC50 against FL hMALT1 enzyme was 7.35; in test [1] (48 hours), 6.39.

In the case of `CN(C(=O)C1CN(C(=O)C2CCOC2)C1)[C@@H](c1ccc(NC2Cc3ccc(Cl)c(Cl)c3C2)cn1)C(F)(F)F` (single isomer, unassigned) [Example 352], the pIC50 against FL hMALT1 enzyme is 7.34; in test [1] (Homo sapiens, Jurkat, 48 h), 6.96.

For `CN(C(=O)[C@H]1C[C@H](O)C1)[C@@H](c1ccc(NC2Cc3ccc(Cl)c(F)c3C2)cn1)C(F)(F)F` (single isomer, unassigned) [Example 374], the negative-log IC50 (pIC50) against FL hMALT1 enzyme was 7.30; in test [1] (Homo sapiens, Jurkat, 48 h), 6.64.

`CN(C(=O)[C@H]1CCC(=O)NC1)[C@@H](c1ccc(NC2Cc3ccc(Cl)c(F)c3C2)cn1)C(F)(F)F` (single isomer, unassigned) [Example 337]: the pIC50 was 7.29 against FL hMALT1 enzyme and 6.77 in test [1] (Homo sapiens, Jurkat, 48 h).

On to `CN(C(=O)C1CCS(=O)(=O)CC1)[C@@H](c1ccc(NC2Cc3ccc(Cl)c(C(F)(F)F)c3C2)cn1)C(F)(F)F` (single isomer, unassigned) [Example 312], for which the pIC50 against FL hMALT1 enzyme was 7.82; in test [1] (Homo sapiens, Jurkat, 48 h) it was 6.46.

Regarding `CN(C(=O)[C@H]1CCC(=O)NC1)[C@@H](c1ccc(NC2Cc3ccc(Cl)c(Cl)c3C2)cn1)C(F)(F)F` (single isomer, unassigned) [Example 321], the negative logarithm of the IC50 (pIC50) on FL hMALT1 enzyme was 7.60; in test [1] (Homo sapiens, Jurkat, 48 h) it was 7.07.

Take `CC(=O)N[C@H]1CC[C@@H](C(=O)N(C)[C@@H](c2ccc(N[C@H]3Cc4ccccc4C3(C)C)cn2)C(F)(F)F)C1` [Example 172, (1R,3S)-3-Acetamido-N—((S)-1-(5-(((S)-1,1-dimethyl-2,3-dihydro-1H-inden-2-yl)amino)pyridin-2-yl)-2,2,2-trifluoroethyl)-N-methylcyclopentane-1-carboxamide]: the pIC50 is 7.15 against FL hMALT1 enzyme and 6.31 in test [1] (Homo sapiens, Jurkat, 48 h).

As for `CN1CCC(C(=O)N(C)[C@@H](c2ccc(NC3Cc4ccccc4C3(C)C)cn2)C(F)(F)F)CC1` (single isomer, unassigned) [Example 133], the pIC50 at FL hMALT1 enzyme is 6.82; in test [1] (48 hours), 6.22.

On to `CN(C(=O)C1CCS(=O)(=O)CC1)[C@@H](c1ccc(NC2Cc3ccc(Br)cc3C2)cn1)C(F)(F)F` (single isomer, unassigned) [Example 284], for which the pIC50 at FL hMALT1 enzyme is 7.07; in test [1] (Homo sapiens, Jurkat, 48 h) it was 6.31.

On to `CN(C(=O)[C@@H]1CNC(=O)C1)[C@@H](c1ccc(NC2Cc3ccc(Cl)c(F)c3C2)cn1)C(F)(F)F` (single isomer, unassigned) [Example 317], for which the pIC50 is 7.14 against FL hMALT1 enzyme and 6.95 in test [1] (Homo sapiens, Jurkat, 48 h).

In the case of `CN(C(=O)C1CC2(CCC(=O)N2)C1)[C@@H](c1ccc(NC2Cc3ccccc3C2(C)C)cn1)C(F)(F)F` (single isomer, unassigned) [Example 232], the values for the pIC50 (at FL hMALT1 enzyme; in test [1] (48 hours)) were 7.52 and 6.74, respectively.

As for `CN(C(=O)C1CCNC(=O)C1)[C@@H](c1ccc(NC2Cc3ccccc3C2(C)C)cn1)C(F)(F)F` (single isomer, unassigned) [Example 119], the figures for the negative-log IC50 (pIC50) (on FL hMALT1 enzyme; in test [1] (48 hours)) were 6.82 and 5.76, respectively.

In the case of `CN(C(=O)C1CCS(=O)(=O)CC1)[C@@H](c1ccc(NC2Cc3ccc(Cl)c(C4CC4)c3C2)cn1)C(F)(F)F` (single isomer, unassigned) [Example 306], the pIC50 was 8.05 against FL hMALT1 enzyme and 6.70 in test [1] (Homo sapiens, Jurkat, 48 h).

For `CN(C(=O)C1CCS(=O)(=O)CC1)[C@@H](c1ccc(NC2Cc3ccc(F)c(F)c3C2)cn1)C(F)(F)F` (single isomer, unassigned) [Example 261], the results for the pIC50 (at FL hMALT1 enzyme; in test [1] (48 hours)) were 7.09 and 5.85, respectively.

For the compound `CN(C(=O)C1CN2CCC1CC2)[C@@H](c1ccc(NC2Cc3ccccc3C2(C)C)cn1)C(F)(F)F` (single isomer, unassigned) [Example 140], the pIC50 is 6.74 at FL hMALT1 enzyme and 5.90 in test [1] (Homo sapiens, Jurkat, 48 h).
